Experimental findings from ChEMBL document CHEMBL1201862, “PubChem BioAssay data set” (2004) are described below.

In test [1] the target is T1, Intestinal-type alkaline phosphatase (Homo sapiens, UniProt P09923). Briefly: Dose Response confirmation of uHTS hits from a small molecule inhibitors of human intestinal alkaline phosphatase via a luminescent assay. [Related pubchem assays (depositor defined):AID2544, AID2574]. It counts as functional.
Test [2] deals with Beta-lactamase (Pseudomonas aeruginosa, UniProt Q79MP6).
Test [3] concerns the target T2, Insulin-degrading enzyme (Homo sapiens, UniProt P14735).
T2 sequence (P14735 whole entry): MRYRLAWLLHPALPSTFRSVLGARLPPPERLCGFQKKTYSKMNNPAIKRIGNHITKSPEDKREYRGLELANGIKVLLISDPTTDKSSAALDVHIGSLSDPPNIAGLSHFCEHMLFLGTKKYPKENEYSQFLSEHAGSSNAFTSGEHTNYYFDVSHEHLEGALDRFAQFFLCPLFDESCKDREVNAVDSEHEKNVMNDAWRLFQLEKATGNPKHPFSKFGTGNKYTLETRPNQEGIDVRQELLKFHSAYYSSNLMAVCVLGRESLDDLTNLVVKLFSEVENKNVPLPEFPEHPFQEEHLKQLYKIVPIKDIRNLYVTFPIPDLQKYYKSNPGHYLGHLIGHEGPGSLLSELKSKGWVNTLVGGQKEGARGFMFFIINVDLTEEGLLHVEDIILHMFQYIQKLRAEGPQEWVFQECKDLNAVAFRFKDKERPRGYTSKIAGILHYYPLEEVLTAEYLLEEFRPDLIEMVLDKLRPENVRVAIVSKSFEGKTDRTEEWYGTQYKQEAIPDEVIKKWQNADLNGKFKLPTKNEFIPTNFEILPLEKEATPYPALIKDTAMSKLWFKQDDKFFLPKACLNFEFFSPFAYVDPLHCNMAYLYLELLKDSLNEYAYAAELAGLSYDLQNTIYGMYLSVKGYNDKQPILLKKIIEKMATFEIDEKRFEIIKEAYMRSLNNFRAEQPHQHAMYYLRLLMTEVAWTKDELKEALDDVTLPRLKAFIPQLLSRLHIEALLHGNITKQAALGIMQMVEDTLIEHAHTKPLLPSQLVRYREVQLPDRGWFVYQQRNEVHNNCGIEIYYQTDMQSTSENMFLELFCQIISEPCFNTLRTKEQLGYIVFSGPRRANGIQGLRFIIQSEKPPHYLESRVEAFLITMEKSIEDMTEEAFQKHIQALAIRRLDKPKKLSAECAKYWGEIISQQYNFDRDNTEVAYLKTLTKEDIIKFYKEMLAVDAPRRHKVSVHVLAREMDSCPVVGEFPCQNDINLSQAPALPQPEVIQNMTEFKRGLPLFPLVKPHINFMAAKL
The test can be described thus: activators of recombinant IDE enzyme, dose response, counter-screen for IDE activator project, biochemical, fluorescence polarization (AID 588681). A general note: The purpose of a counterscreen is to sort out artefacts and off-target activity.

In test [4] the test system is HEK293. The test can be described thus: optical interference in Abeta FP readout, dose response, artefact control for IDE activator project, biochemical, fluorescence polarization (AID 588442). It counts as functional, cell-based. The conditions noted are these: Homo sapiens. For orientation: In fluorescence polarisation assays a small probe gives low polarisation when free and higher when bound to something large.

The target of test [5] is T1, Intestinal-type alkaline phosphatase. The test can be described thus: human IAP inhibitors, dose response, biochemical, luminescent, uHTS hits, set 2 (AID 488793). The format is functional.
The target of a further test is ORF 73 (Human herpesvirus 8, UniProt O40947). Briefly: inhibitors of C-LANA binding to LBS DNA, dose response, biochemical, fluorescence polarization, cherry-picked samples (AID 504725).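 Further: fluorescence polarization of a labeled DNA duplex reporting LANA DNA binding; potency is for inhibitors that block LANA binding to the DNA.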 Set-up: species or system Human gammaherpesvirus 8.
The test system of test [6] is HEK293. The test can be described thus: HEK cell cytotoxicity by LDH release, dose response, cytotoxicity control for IDE activator project, fluorescence, HEK cells (AID 588440).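 Further: cytotoxicity by LDH release measuring loss of membrane integrity.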 The conditions noted are these: Homo sapiens. It counts as functional, cell-based. On the technique in general: LDH leaks from cells whose membrane has failed.
Test [7] addresses T3, Alkaline phosphatase, tissue-nonspecific isozyme (Homo sapiens, UniProt P05186).
T3 sequence (P05186 whole entry): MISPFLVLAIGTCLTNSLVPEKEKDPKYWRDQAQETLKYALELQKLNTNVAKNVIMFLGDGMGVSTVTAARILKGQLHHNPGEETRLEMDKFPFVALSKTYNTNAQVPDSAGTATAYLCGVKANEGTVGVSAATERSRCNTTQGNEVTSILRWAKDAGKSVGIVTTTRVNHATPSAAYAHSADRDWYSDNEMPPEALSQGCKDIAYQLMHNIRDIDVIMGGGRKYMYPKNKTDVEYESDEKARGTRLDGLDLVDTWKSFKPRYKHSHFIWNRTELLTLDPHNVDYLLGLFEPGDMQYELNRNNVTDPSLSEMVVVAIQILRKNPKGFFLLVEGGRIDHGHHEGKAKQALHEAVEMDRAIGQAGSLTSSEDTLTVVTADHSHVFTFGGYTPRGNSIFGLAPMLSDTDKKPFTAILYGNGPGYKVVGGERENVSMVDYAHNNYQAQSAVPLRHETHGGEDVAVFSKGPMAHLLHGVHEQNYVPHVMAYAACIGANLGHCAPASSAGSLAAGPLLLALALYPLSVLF
The test can be described thus: inhibition of tissue-nonspecific alkaline phosphatase – biochemical, dose response (AID 488882). It counts as functional.

Test [8] concerns the target T2, Insulin-degrading enzyme. Briefly: activators of endogenous IDE in HEK cells, dose response, cell-based, fluorescence polarization (AID 588439). The format is functional.
The target of test [9] is Intestinal-type alkaline phosphatase (Mus musculus, UniProt P24822). The test can be described thus: PubChem AID 488874. The format is functional.
In test [10] the target is Beta-lactamase (Salmonella choleraesuis (strain SC-B67), UniProt Q5J463).
Test [11] can be described thus: HepG2 cell cytotoxicity, dose response, cytotoxicity control for Shn3 inhibitor project, CellTiter-Glo, cherry-picked (AID 624134). The format is functional, cell-based.
Test [12] deals with DNA damage-inducible transcript 3 protein (Mus musculus, UniProt P35639). It counts as functional, Cricetulus griseus.
The nature of test [13]: control 3'UTR Renilla luciferase suppression, dose response, counter-screen for Shn3 inhibitor project, cell-based, Clone20-Shn3RL, cherry-picked (AID 624133). The format is functional.
In test [14] the target is T4, High affinity choline transporter 1 (Homo sapiens, UniProt Q9GZV3).
T4 sequence (Q9GZV3 whole entry): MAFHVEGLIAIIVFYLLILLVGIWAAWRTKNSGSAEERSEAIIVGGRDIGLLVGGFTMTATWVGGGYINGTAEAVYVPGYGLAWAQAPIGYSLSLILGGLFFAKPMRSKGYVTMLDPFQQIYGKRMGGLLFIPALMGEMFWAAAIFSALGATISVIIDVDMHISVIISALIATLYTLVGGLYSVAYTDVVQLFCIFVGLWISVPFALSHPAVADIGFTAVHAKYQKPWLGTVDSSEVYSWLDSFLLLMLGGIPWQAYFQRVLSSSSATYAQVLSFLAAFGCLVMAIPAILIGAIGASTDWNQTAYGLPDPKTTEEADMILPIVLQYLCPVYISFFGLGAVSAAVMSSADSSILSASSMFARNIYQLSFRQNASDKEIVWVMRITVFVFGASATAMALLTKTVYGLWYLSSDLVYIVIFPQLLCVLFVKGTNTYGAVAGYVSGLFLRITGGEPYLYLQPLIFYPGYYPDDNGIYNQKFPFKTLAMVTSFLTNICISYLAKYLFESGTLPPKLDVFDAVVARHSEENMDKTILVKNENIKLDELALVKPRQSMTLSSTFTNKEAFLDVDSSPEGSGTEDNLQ
Briefly: CHT inhibitors, dose response, cell-based, 5-point CRC, membrane potential dye (AID 504840). It counts as functional.

Test [15] can be described thus: Shn3 3'UTR reporter inhibitors, dose response, cell-based, Clone20 osteoblasts, firefly luciferase, cherry-picked (AID 624132).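 Further: firefly luciferase luminescence from reporter carrying the Shn3 3'UTR in osteoblasts.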 The format is functional.
The subject of another test is CHO. Briefly: cytotoxicity in TLR9-MyD88 CHO cells, dose response, cytotoxicity control for TLR9-MyD88 binding inhibitor project, cell-based, luminescence (AID 588339).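 Further: CHO cells stably coexpressing TLR9 and MyD88 fusions from primary screen; compound exposure lasted 48 hours before viability readout.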 It counts as functional, hamster. The conditions noted are these: Cricetulus griseus.
The next test deals with Beta Lactamase (Pseudomonas aeruginosa, UniProt Q932Y6). The test can be described thus: beta-lactamase reporter inhibitor potency, dose response, artefact control for TLR9-MyD88 binding inhibitor project, BLA reporter cells, FRET fluorescence (AID 588341).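 Further: cell based assay in CHO-K1 cells stably expressing beta-lactamase.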 The format is cell-based.
For test [16], the target named is T5, Delta-type opioid receptor (Homo sapiens, UniProt P41143). The test can be described thus: HTS Image-Based Screen for Antagonists of the DOR Receptor. [Related pubchem assays (depositor defined):AID1777, AID1785, AID1786, AID2133]. It counts as functional.
Test [17] can be described thus: CellTiter-Glo luminescent dose response of DLD-1 viability loss (AID 1117352). It counts as functional.
For the next test, the target named is Beta-galactosidase (Escherichia coli, UniProt Q8VNN2). The format is functional.
The target of test [18] is T6, Kappa-type opioid receptor (Homo sapiens, UniProt P41145). It counts as functional.
The nature of test [19]: RKO cell viability reduction, dose response, CellTiter-Glo luminescence (AID 1117322). The format is functional.
Test [20] can be described thus: HCT116 cell viability decrease, GSK3B pretreatment – CellTiter-Glo, IC50, dose response (AID 1117339). The format is functional. The conditions noted are these: HCT-116.
Test [21] is described as follows: cytotoxicity toward HT-29 cells – cell-based, CellTiter-Glo luminescence, IC50, dose response (AID 1117330). The format is functional.
Another test concerns the target Mu-type opioid receptor (Homo sapiens, UniProt P35372). Briefly: HTS Image-Based Screen for Agonists of the MOR Receptor. [Related pubchem assays (depositor defined):AID1777, AID1785, AID1786, AID2133]. The format is functional.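 Further: imaging of beta-arrestin GFP recruitment into spots after receptor activation.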
Test [22] has as its target T5, Delta-type opioid receptor. Briefly: HTS Image-Based Screen for Agonists of the DOR Receptor. [Related pubchem assays (depositor defined):AID1777, AID1786, AID2133]. The format is functional.
Test [23] concerns Streptococcus sp. 'group A'. The test can be described thus: growth inhibition of control SK(-) GAS strain, dose response, counter-screen for streptokinase expression inhibitor project, luminescence, kanamycin, BacTiterGlo, confirmation (AID 1900). It counts as functional, organism-based.
A short description of test [24]: Concentration-dependent survival of SW480 colon cancer line, luminescence detection with CellTiter-Glo, half-maximal inhibitory concentration (AID 1117338). It counts as functional.
Test [25] has as its target Heat shock protein HSP 90-alpha (Homo sapiens, UniProt P07900). It counts as functional, organism-based.
The nature of test [26]: HeLa 4N DNA content increase, dose response, cell-based, IC50 (AID 1117351). The format is functional.
Test [27] can be described thus: SNU-C1 cell viability reduction, dose response, CellTiter-Glo luminescence (AID 1117323). It counts as functional, cell-based.
Test [28] can be described thus: cytotoxicity toward HCT116 cells – cell-based, CellTiter-Glo luminescence, IC50, dose response (AID 1117332). It counts as functional. The conditions noted are these: HCT-116.
A further test deals with HSP90 (Plasmodium falciparum 3D7, UniProt Q8IL32). It counts as functional, organism-based.
Test [29] concerns the target T6, Kappa-type opioid receptor. The format is functional. This is another data set of the same source.
Test [30] in a line: cytotoxicity toward Colo320 cells – cell-based, CellTiter-Glo luminescence, IC50, dose response (AID 1117334). The conditions noted are these: COLO 320. The format is functional.
For another test, the system named is Streptococcus. Briefly: Group A Streptococcus viability loss, dose response, counter-screen for streptokinase expression inhibitor project, luminescence, BacTiterGlo (AID 1915).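 Further: potency for reduction of bacterial viability or growth.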 The format is functional, organism-based.
Test [31] in a line: HeLa 2N DNA content increase, dose response, cell-based, IC50 (AID 1117349). It counts as functional.

Molecules are shown by their SMILES. Calls of active or inactive are those of the source. Bounds are passed on as bounds.

T1 sequence (P09923 whole entry): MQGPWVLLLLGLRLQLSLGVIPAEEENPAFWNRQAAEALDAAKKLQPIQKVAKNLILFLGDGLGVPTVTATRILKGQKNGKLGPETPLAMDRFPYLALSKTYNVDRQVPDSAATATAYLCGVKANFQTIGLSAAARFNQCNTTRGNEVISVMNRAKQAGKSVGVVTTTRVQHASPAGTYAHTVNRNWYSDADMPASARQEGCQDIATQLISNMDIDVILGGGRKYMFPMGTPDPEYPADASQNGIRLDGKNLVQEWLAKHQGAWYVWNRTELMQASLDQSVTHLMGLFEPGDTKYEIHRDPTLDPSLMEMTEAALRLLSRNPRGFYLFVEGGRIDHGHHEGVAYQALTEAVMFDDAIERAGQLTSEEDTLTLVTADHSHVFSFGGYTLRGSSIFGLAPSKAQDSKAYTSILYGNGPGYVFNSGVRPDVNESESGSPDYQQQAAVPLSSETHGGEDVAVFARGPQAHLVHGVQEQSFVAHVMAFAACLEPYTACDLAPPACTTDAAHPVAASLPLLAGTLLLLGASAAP
T5 sequence (P41143 whole entry): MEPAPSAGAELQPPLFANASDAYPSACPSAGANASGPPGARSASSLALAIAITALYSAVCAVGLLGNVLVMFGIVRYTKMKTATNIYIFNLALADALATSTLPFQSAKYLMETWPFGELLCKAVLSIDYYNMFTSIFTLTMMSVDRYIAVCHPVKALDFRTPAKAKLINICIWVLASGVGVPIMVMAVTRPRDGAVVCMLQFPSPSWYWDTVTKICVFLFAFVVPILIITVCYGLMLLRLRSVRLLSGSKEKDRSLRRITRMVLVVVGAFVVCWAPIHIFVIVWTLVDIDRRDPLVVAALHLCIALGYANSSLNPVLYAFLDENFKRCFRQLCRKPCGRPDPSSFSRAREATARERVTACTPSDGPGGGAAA
T6 sequence (P41145 whole entry): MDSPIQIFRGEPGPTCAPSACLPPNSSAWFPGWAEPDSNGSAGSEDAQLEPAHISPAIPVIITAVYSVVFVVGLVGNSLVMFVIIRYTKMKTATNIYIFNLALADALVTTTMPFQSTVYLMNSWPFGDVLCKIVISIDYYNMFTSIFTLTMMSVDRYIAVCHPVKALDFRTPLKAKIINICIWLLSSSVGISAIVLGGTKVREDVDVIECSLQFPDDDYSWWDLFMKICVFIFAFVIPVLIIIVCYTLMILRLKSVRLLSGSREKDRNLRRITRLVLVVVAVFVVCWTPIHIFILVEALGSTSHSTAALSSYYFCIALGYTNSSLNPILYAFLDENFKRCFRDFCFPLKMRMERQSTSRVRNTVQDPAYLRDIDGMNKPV
Sequence of Beta-galactosidase (Q8VNN2 whole entry): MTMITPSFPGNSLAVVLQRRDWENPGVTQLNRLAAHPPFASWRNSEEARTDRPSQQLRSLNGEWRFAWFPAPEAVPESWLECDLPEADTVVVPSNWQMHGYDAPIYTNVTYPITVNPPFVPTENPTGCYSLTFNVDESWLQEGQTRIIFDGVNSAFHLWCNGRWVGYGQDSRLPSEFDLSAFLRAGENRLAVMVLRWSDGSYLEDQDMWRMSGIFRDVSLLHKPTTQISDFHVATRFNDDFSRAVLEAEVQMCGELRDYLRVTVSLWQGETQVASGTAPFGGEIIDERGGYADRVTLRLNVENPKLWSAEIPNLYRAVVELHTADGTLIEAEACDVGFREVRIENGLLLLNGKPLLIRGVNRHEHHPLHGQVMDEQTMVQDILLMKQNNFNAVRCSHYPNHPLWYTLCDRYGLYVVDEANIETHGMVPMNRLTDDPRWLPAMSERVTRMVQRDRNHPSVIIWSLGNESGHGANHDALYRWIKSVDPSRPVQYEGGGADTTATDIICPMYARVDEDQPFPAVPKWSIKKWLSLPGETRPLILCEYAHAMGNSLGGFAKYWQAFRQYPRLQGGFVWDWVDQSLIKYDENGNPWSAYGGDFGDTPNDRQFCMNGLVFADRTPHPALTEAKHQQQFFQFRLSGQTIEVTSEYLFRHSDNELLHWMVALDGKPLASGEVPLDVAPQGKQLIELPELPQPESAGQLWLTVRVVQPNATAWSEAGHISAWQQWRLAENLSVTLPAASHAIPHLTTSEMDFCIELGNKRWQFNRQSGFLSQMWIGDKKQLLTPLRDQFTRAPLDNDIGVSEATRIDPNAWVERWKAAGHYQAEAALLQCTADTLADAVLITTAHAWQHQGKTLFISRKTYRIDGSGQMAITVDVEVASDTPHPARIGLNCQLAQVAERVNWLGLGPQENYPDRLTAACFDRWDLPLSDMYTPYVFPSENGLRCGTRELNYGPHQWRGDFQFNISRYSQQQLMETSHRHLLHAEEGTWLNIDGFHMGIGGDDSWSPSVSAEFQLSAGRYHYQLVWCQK
Sequence of ORF 73 (O40947 whole entry): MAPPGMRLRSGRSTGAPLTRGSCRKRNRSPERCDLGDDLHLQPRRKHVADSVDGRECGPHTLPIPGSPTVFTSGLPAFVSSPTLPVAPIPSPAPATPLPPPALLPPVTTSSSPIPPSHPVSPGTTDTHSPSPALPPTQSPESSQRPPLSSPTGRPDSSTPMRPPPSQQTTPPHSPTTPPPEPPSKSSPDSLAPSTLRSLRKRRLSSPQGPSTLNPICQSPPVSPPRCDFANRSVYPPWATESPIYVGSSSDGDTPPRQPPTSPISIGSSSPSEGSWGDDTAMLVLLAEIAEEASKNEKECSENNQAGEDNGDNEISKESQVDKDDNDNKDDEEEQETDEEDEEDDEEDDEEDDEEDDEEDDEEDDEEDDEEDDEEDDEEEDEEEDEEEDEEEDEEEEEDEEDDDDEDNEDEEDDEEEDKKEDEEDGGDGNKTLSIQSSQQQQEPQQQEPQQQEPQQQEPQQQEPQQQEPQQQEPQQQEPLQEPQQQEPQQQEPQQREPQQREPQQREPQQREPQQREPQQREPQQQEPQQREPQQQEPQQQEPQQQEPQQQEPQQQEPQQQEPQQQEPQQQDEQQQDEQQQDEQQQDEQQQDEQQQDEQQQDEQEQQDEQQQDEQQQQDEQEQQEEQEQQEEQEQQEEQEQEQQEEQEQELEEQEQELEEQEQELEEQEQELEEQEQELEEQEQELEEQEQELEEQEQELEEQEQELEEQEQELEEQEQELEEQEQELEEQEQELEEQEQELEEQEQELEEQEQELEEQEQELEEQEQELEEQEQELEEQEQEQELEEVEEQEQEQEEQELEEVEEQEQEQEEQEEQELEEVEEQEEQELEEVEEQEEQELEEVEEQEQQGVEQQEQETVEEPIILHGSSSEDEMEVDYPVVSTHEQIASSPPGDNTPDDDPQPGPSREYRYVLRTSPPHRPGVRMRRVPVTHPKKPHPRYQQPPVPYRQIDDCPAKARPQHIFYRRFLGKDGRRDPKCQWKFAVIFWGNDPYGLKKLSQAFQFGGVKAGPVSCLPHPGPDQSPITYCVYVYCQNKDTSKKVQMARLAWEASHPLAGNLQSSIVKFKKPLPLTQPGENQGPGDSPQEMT
Sequence of Beta-lactamase (Salmonella choleraesuis (strain SC-B67), UniProt Q5J463) (Q5J463 whole entry): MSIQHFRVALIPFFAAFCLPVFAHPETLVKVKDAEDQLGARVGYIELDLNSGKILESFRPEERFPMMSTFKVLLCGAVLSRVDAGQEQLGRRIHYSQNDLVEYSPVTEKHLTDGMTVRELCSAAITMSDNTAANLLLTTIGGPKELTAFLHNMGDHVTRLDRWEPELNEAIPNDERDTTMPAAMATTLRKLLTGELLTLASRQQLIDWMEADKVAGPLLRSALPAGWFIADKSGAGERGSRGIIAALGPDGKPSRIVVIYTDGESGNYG
Sequence of Intestinal-type alkaline phosphatase (Mus musculus, UniProt P24822) (P24822 whole entry): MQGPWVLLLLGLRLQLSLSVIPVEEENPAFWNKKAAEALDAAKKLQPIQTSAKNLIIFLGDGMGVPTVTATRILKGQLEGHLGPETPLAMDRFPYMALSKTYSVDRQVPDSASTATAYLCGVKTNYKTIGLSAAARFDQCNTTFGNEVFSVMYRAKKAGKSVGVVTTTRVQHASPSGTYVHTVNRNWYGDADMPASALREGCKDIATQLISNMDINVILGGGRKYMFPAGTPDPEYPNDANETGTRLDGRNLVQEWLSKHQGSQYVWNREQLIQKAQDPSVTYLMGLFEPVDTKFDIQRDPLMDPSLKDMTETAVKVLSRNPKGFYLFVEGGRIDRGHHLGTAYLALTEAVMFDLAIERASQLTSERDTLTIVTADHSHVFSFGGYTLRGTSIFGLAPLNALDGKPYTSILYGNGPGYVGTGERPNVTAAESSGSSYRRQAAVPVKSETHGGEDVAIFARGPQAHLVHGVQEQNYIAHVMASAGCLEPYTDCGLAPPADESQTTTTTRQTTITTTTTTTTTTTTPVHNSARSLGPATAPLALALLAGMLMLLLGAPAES
Sequence of Beta-lactamase (Pseudomonas aeruginosa, UniProt Q79MP6) (Q79MP6 whole entry): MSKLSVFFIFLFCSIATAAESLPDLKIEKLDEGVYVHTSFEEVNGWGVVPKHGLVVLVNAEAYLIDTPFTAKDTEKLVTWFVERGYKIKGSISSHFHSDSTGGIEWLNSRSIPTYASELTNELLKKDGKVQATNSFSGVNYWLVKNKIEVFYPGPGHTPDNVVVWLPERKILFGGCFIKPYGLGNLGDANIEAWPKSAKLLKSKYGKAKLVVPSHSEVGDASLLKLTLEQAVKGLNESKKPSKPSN
Sequence of Mu-type opioid receptor (P35372 whole entry): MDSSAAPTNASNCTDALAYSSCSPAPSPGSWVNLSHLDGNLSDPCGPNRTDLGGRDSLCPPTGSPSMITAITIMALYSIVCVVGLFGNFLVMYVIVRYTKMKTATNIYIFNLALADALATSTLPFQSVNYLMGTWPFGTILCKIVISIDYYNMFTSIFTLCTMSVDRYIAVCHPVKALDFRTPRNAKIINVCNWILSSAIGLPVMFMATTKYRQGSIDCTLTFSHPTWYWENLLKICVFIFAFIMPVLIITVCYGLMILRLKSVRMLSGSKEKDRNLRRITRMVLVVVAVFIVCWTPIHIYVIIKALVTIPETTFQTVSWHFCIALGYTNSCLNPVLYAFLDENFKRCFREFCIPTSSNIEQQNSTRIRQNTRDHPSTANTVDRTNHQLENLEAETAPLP

By IC50 is commonly meant the concentration needed to halve the response being measured. By EC50 is commonly meant the concentration giving half of the maximal effect. In general, AC50 refers to the midpoint of the concentration-response curve, whichever way the signal moves. On to `Nc1ccc(-c2c3ccc(=O)cc-3oc3cc(O)ccc23)cc1C(=O)O`, for which the IC50 in [1] is 14.5 µM (inactive); on Beta-lactamase [2], 8.62 µM (active); in test [5], 28.1 µM (active); with HEK293 [6], > 89.2 µM (inactive); in test [7], 34 µM (active); in test [9], 20.3 µM (active). Moreover, the IC50 on Beta-lactamase [10] is 3.41 µM (active). Also, the EC50 at Insulin-degrading enzyme [3], in the test with HEK293 [4] and on Insulin-degrading enzyme [8] was > 54.7 µM (inactive) throughout. Further, the half-maximal activity concentration (AC50) at ORF 73 is 0.532 µM (active).
Consider `CCOC(=O)c1nc(S(C)(=O)=O)ncc1Cl`, for which the AC50 in test [11] is 35.4 µM (active); in [13], 20.5 µM (active); in [15], 6.37 µM (active). In addition, the “Absolute IC50 (CHOP)” value in [12] was found to be 10 µM. The IC50 in test [14] is 19.1 µM (active); in the test on CHO, 5.62 µM (active); at Beta Lactamase, 22.4 µM (inactive).
Consider `Oc1c(Cl)cc(Cl)c2cccnc12` [CHLOROXINE], for which the IC50 in test [16] is > 32 µM (inactive); in test [17], 0.409 µM (active); in [18] it was greater than 32 µM; in test [19], 0.0627 µM (active); in [20], 0.0393 µM (active); in test [21], > 20 µM (inactive). The IC50 is 0.0438 µM (active) in [24]; > 10 µM (inactive) in test [26]; 0.495 µM (active) in test [27]; 0.0475 µM (active) in test [28]; 4.56 µM (active) in test [29]; 0.0493 µM (active) in test [30]. In addition, the IC50 in test [31] was > 10 µM (inactive). In addition, the EC50 is > 31.5 µM (inactive) at Beta-galactosidase; > 32 µM (inactive) at Mu-type opioid receptor; > 32 µM (inactive) in [22]; 0.258 µM (active) in test [23]; 3.31 µM (active) in the test on Streptococcus. Moreover, the results for the AC50 (in test [25]; on HSP90) were 1.05 µM (active) and 0.511 µM (active), respectively.
